Data reported in PubChem BioAssay (NCI).
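Grown in 96-well plates, cells were treated for 48 hours with each compound at five concentrations. Insufficient inhibition: endpoint recorded as highest concentration tested. GI50: concentration for 50% inhibition of growth. TGI is the concentration that stops growth completely.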

How the values were obtained:
Assay in all cases: DTP human tumour cell line panel, 48 h
NCI/ADR-RES ovarian = system: NCI/ADR-RES ovarian
UACC-62 melanoma = system: UACC-62 melanoma
HOP-92 NSCLC = system: HOP-92 NSCLC
A549 NSCLC = system: A549 NSCLC
HCT-116 colon = system: HCT-116 colon
TK-10 renal = system: TK-10 renal
NCI-H522 lung = system: NCI-H522 lung
IGROV1 ovarian = system: IGROV1 ovarian
HL-60(TB) leukemia = system: HL-60(TB) leukemia
DU-145 prostate = system: DU-145 prostate
LOX IMVI melanoma = system: LOX IMVI melanoma
HOP-62 NSCLC = system: HOP-62 NSCLC
SF-539 CNS = system: SF-539 CNS
UO-31 renal = system: UO-31 renal
SN12C renal = system: SN12C renal
HS 578T breast = system: HS 578T breast
MDA-MB-435 = system: MDA-MB-435
UACC-257 melanoma = system: UACC-257 melanoma
HCC-2998 colon = system: HCC-2998 colon
SNB-19 CNS = system: SNB-19 CNS
NCI-H23 lung = system: NCI-H23 lung
SK-MEL-5 melanoma = system: SK-MEL-5 melanoma
SF-268 CNS = system: SF-268 CNS
HCT-15 colon = system: HCT-15 colon
SW-620 colon = system: SW-620 colon
SK-MEL-28 melanoma = system: SK-MEL-28 melanoma
OVCAR-8 ovarian = system: OVCAR-8 ovarian
NCI-H460 lung = system: NCI-H460 lung
CCRF-CEM leukemia = system: CCRF-CEM leukemia
SR leukemia = system: SR leukemia
RPMI-8226 leukemia = system: RPMI-8226 leukemia
T-47D breast = system: T-47D breast
OVCAR-3 ovarian = system: OVCAR-3 ovarian
U251 CNS = system: U251 CNS
EKVX NSCLC = system: EKVX NSCLC
BT-549 breast = system: BT-549 breast
CAKI-1 renal = system: CAKI-1 renal
MCF7 breast = system: MCF7 breast
SK-MEL-2 melanoma = system: SK-MEL-2 melanoma
MDA-MB-231 breast = system: MDA-MB-231 breast
K-562 leukemia = system: K-562 leukemia
ACHN renal = system: ACHN renal
SK-OV-3 ovarian = system: SK-OV-3 ovarian
COLO 205 colon = system: COLO 205 colon
PC-3 prostate = system: PC-3 prostate
KM12 colon = system: KM12 colon
RXF 393 renal = system: RXF 393 renal
OVCAR-5 ovarian = system: OVCAR-5 ovarian
M14 melanoma = system: M14 melanoma
SNB-75 CNS = system: SNB-75 CNS
SF-295 CNS = system: SF-295 CNS
A498 renal = system: A498 renal
HT29 colon = system: HT29 colon
MOLT-4 leukemia = system: MOLT-4 leukemia
786-0 renal = system: 786-0 renal
MALME-3M melanoma = system: MALME-3M melanoma
OVCAR-4 ovarian = system: OVCAR-4 ovarian
NCI-H226 lung = system: NCI-H226 lung

## CC(O)c1cccc(NCc2c3ccccc3c(=O)n3c2oc2ccccc23)c1 (stereo not given)
NCI/ADR-RES ovarian
  GI50: 11.8 µM
  TGI: 28.5 µM
UACC-62 melanoma
  GI50: 5.45 µM
  TGI: 22.3 µM
HOP-92 NSCLC
  GI50: 5.4 µM
  TGI: 44.3 µM
A549 NSCLC
  GI50: 2.33 µM
  TGI: 24 µM
HCT-116 colon
  GI50: 3.13 µM
  TGI: 14.4 µM
TK-10 renal
  GI50: 5.7 µM
  TGI: 28 µM
NCI-H522 lung
  GI50: 5.55 µM
  TGI: 45.1 µM
IGROV1 ovarian
  GI50: 1.32 µM
  TGI: 27 µM
HL-60(TB) leukemia
  GI50: > 100 µM
  TGI: > 100 µM
DU-145 prostate
  GI50: 5.46 µM
  TGI: > 100 µM
LOX IMVI melanoma
  GI50: 8.02 µM
  TGI: 36 µM
HOP-62 NSCLC
  GI50: 3.01 µM
  TGI: 13.6 µM
SF-539 CNS
  GI50: 1.37 µM
  TGI: 3.43 µM
UO-31 renal
  GI50: 3.58 µM
  TGI: 28.1 µM
SN12C renal
  GI50: 15.5 µM
  TGI: > 100 µM
HS 578T breast
  GI50: 4.43 µM
  TGI: 57.4 µM
MDA-MB-435
  GI50: 18.4 µM
  TGI: > 100 µM
UACC-257 melanoma
  GI50: 8.24 µM
  TGI: 47.7 µM
HCC-2998 colon
  GI50: 11.3 µM
  TGI: 57.2 µM
SNB-19 CNS
  GI50: 16.4 µM
  TGI: 88.3 µM
NCI-H23 lung
  GI50: 9.41 µM
  TGI: 26.9 µM
SK-MEL-5 melanoma
  GI50: 4.87 µM
  TGI: 31.6 µM
SF-268 CNS
  GI50: > 100 µM
  TGI: > 100 µM
HCT-15 colon
  GI50: 5.56 µM
  TGI: 28.8 µM
SW-620 colon
  GI50: 13.6 µM
  TGI: > 100 µM
SK-MEL-28 melanoma
  GI50: 6 µM
  TGI: 35.6 µM
OVCAR-8 ovarian
  GI50: 8.04 µM
  TGI: 36.2 µM
NCI-H460 lung
  GI50: > 100 µM
  TGI: > 100 µM
CCRF-CEM leukemia
  GI50: 3.34 µM
  TGI: > 100 µM
SR leukemia
  GI50: 3.39 µM
  TGI: 12.1 µM
RPMI-8226 leukemia
  GI50: 65 µM
  TGI: > 100 µM
T-47D breast
  GI50: 14.4 µM
  TGI: 64.6 µM
OVCAR-3 ovarian
  GI50: 9.25 µM
  TGI: 85.2 µM
U251 CNS
  GI50: 9.92 µM
  TGI: 21.5 µM
EKVX NSCLC
  GI50: 3.87 µM
  TGI: 19.3 µM
BT-549 breast
  GI50: 3.95 µM
  TGI: 14.7 µM
CAKI-1 renal
  GI50: 7.29 µM
  TGI: > 100 µM
MCF7 breast
  GI50: > 100 µM
  TGI: > 100 µM
SK-MEL-2 melanoma
  GI50: 6.31 µM
  TGI: 46.9 µM
MDA-MB-231 breast
  GI50: 13.3 µM
  TGI: 47.9 µM
K-562 leukemia
  GI50: > 100 µM
  TGI: > 100 µM
ACHN renal
  GI50: 3.51 µM
  TGI: 13.5 µM
SK-OV-3 ovarian
  GI50: 4.42 µM
  TGI: 30.6 µM
COLO 205 colon
  GI50: > 100 µM
  TGI: > 100 µM
PC-3 prostate
  GI50: 7.11 µM
  TGI: > 100 µM
KM12 colon
  GI50: 13.4 µM
  TGI: > 100 µM
RXF 393 renal
  GI50: 22.5 µM
  TGI: 67.8 µM
OVCAR-5 ovarian
  GI50: 18.3 µM
  TGI: > 100 µM
M14 melanoma
  GI50: 4.5 µM
  TGI: 25.2 µM
SNB-75 CNS
  GI50: 1.75 µM
  TGI: 5.76 µM
SF-295 CNS
  GI50: 2.43 µM
  TGI: 14.5 µM
A498 renal
  GI50: 1.61 µM
  TGI: 4.93 µM
HT29 colon
  GI50: 35.6 µM
  TGI: > 100 µM
MOLT-4 leukemia
  GI50: 5.03 µM
  TGI: > 100 µM
786-0 renal
  GI50: 4.18 µM
  TGI: 19.2 µM

## CC[C@H](NC(=O)[C@H](C)NC)C(=O)N1C[C@@H](O)C[C@H]1Cc1c(-c2[nH]c3cc(F)ccc3c2C[C@@H]2C[C@H](O)CN2C(=O)[C@H](CC)NC(=O)[C@H](C)NC)[nH]c2cc(F)ccc12
NCI/ADR-RES ovarian
  GI50: > 100 µM
  TGI: > 100 µM
UACC-62 melanoma
  GI50: > 100 µM
  TGI: > 100 µM
HOP-92 NSCLC
  GI50: 7.7 µM
  TGI: 40.8 µM
A549 NSCLC
  GI50: > 100 µM
  TGI: > 100 µM
HCT-116 colon
  GI50: > 100 µM
  TGI: > 100 µM
TK-10 renal
  GI50: > 100 µM
  TGI: > 100 µM
NCI-H522 lung
  GI50: 8.21 µM
  TGI: 35.1 µM
HL-60(TB) leukemia
  GI50: 7.15 µM
  TGI: 42.9 µM
DU-145 prostate
  GI50: > 100 µM
  TGI: > 100 µM
LOX IMVI melanoma
  GI50: > 59.6 µM
  TGI: > 100 µM
HOP-62 NSCLC
  GI50: 27.5 µM
  TGI: > 100 µM
SF-539 CNS
  GI50: < 0.01 µM
  TGI: 0.146 µM
UO-31 renal
  GI50: > 100 µM
  TGI: > 100 µM
SN12C renal
  GI50: > 100 µM
  TGI: > 100 µM
HS 578T breast
  GI50: > 23.7 µM
  TGI: > 100 µM
MDA-MB-435
  TGI: > 100 µM
UACC-257 melanoma
  GI50: 0.0431 µM
  TGI: > 100 µM
HCC-2998 colon
  GI50: 96.9 µM
  TGI: > 100 µM
SNB-19 CNS
  GI50: > 100 µM
  TGI: > 100 µM
NCI-H23 lung
  GI50: > 65.3 µM
  TGI: > 100 µM
SK-MEL-5 melanoma
  GI50: 26.2 µM
  TGI: > 53.8 µM
SF-268 CNS
  GI50: > 100 µM
  TGI: > 100 µM
HCT-15 colon
  GI50: > 100 µM
  TGI: > 100 µM
SW-620 colon
  GI50: > 100 µM
  TGI: > 100 µM
SK-MEL-28 melanoma
  GI50: > 100 µM
  TGI: > 100 µM
OVCAR-8 ovarian
  GI50: 31.2 µM
  TGI: > 100 µM
MALME-3M melanoma
  GI50: > 100 µM
  TGI: > 100 µM
OVCAR-4 ovarian
  GI50: 0.0598 µM
NCI-H460 lung
  GI50: > 100 µM
  TGI: > 100 µM
CCRF-CEM leukemia
  GI50: 1.51 µM
  TGI: > 100 µM
SR leukemia
  GI50: 15.5 µM
  TGI: > 100 µM
RPMI-8226 leukemia
  GI50: 12.8 µM
  TGI: 98 µM
T-47D breast
  GI50: > 100 µM
  TGI: > 100 µM
OVCAR-3 ovarian
  GI50: > 100 µM
  TGI: > 100 µM
U251 CNS
  GI50: 93.2 µM
  TGI: > 100 µM
BT-549 breast
  GI50: 0.569 µM
  TGI: > 41.8 µM
CAKI-1 renal
  GI50: > 100 µM
  TGI: > 100 µM
MCF7 breast
  GI50: > 53.3 µM
  TGI: > 100 µM
SK-MEL-2 melanoma
  GI50: 6.01 µM
  TGI: > 100 µM
MDA-MB-231 breast
  GI50: 0.0349 µM
  TGI: 2.18 µM
K-562 leukemia
  GI50: 47.3 µM
  TGI: > 100 µM
ACHN renal
  GI50: > 100 µM
  TGI: > 100 µM
NCI-H226 lung
  GI50: > 100 µM
  TGI: > 100 µM
SK-OV-3 ovarian
  GI50: < 0.0104 µM
  TGI: 0.0189 µM
COLO 205 colon
  GI50: > 55.8 µM
  TGI: > 100 µM
PC-3 prostate
  GI50: > 100 µM
  TGI: > 100 µM
KM12 colon
  GI50: > 100 µM
  TGI: > 100 µM
RXF 393 renal
  GI50: 2.27 µM
  TGI: > 20.1 µM
OVCAR-5 ovarian
  GI50: > 100 µM
  TGI: > 100 µM
M14 melanoma
  GI50: > 100 µM
  TGI: > 100 µM
SNB-75 CNS
  GI50: 2.65 µM
  TGI: > 100 µM
SF-295 CNS
  GI50: > 100 µM
  TGI: > 100 µM
A498 renal
  GI50: > 100 µM
  TGI: > 100 µM
HT29 colon
  GI50: 62 µM
  TGI: > 100 µM
MOLT-4 leukemia
  GI50: 74.4 µM
  TGI: > 100 µM
786-0 renal
  GI50: > 100 µM
  TGI: > 100 µM
